From paper PMC7269503 (Antimicrobial Agents and Chemotherapy, 2020)
≈ marks a conversion by molar mass, not a printed value.

Assays:
[1] = tested on: OPC-167832-resistant isolates of M. tuberculosis H37Rv; assay type: cell-based
[2] = female, ICR, mouse, in vivo, po, 2.5 mg/kg

Compound: O=C1CCc2c(OC[C@]3(O)CCN(c4c(F)cc(Cl)cc4F)C[C@H]3O)ccc(F)c2N1 [OPC-167832]
- MIC against Rv0678 mutants [1]: 1 ng/mL (≈ 2.19 nM)
- AUCt/12 h/MIC [2]: 95 fold
- Cmax/MIC [2]: 314 fold
